Assay results taken from US9182397B2, “Immunoassay for detecting antibiotics” (DSM IP ASSETS B.V., priority 2011, dated 2015).

Legend:
[1] = tested on: Penicillin binding protein purified from Bacillus stearothermophilus; test: Lateral flow test strip, penicillin G in spiked milk (Example 3); parameters: key to Intensity of the detection zone: 0: no intensity; 1: low intensity; 2: medium intensity; 3: high intensity
Method: (§1) A nitrocellulose HF90 membrane (Millipore; length 25 mm) was used as a detection region. The membrane was glued to a polystyrene laminated card (thickness 0.254 mm) 8 mm from the proximal end of the card. Next, the detection zone and control zone were applied onto the nitrocellulose membrane. The detection zone was applied by dispensing 1 mg/ml of a 7ACA-spacer-BSA conjugate in 20 mM KPO4-buffer (pH 7.5) with a Biodot Dispense workstation XYZ 3050 with frontline at 0.2 μl/cm. The control zone was applied by dispensing 0.15 mg/ml of an anti-IgY antibody in 20 mM KPO4-buffer (pH 7.5) comprising 0.675 mg/ml BSA, 5% w/v saccharose and 20 mM NaCl with a Biodot Dispense workstation XYZ 3050 with frontline at 0.8 μl/cm. After drying of the zones, the nitrocellulose membrane was blocked by spraying a solution comprising 10 mM Tris buffer (pH 8) comprising 2% w/v BSA and 0.05% w/v Tween-20 using a Biodot Dispense workstation XYZ 3050 with airjet 3×. The solution was sprayed onto the membrane at a distance of 2 mm below the detection zone. Thereafter, the sample receiving region (VF2 membrane from Millipore; length 1 cm) was glued at the proximal end of the card overlapping 2 mm with the nitrocellulose membrane. The absorbing region (10038 membrane from Millipore; length 20 mm) was glued at the distal end of the card with an overlap of 2 mm on the nitrocellulose membrane. The obtained cards were dried at 37° C. in a dry atmosphere (0% relative humidity). The card was cut in strips of 5.2 mm width and kept at a dry atmosphere (0% relative humidity).
(§2) Streptavidin-coated gold particles were synthesized by reacting colloidal gold (diameter 40 nm; 1 OD/ml) with 10 μg/ml streptavidin. Next, the obtained solution was concentrated by tangential flow filtration, washed and stored in a Tris buffer (pH 8) including NaCN. Penicillin binding protein purified from Bacillus stearothermophilus was biotinylated (1:4) with D-biotinyl-epsilon-aminocaproic acid-N-hydroxysuccinimide ester. Next, the penicillin binding protein-gold conjugate was synthesized by reacting 1.5 μg biotinylated penicillin binding protein with 1 OD streptavidin-coated gold particles for 1 hour, followed by centrifugation at 10,000×g for 5 minutes and resuspension of the obtained pellet in 45 mM bicarbonate buffer comprising 0.1% w/v Triton X-100 (pH 9.6).
IgY-coated gold particles were synthesized by reacting colloidal gold (diameter 40 nm; 1 OD/ml with 10 μg/ml IgY. Next, the obtained solution was centrifuged at 7,500×g for 10 minutes and the obtained pellet was resuspended in a Tris buffer (pH 8), washed by another round of centrifugation and resuspension of the obtained pellet in a Tris buffer (pH 8) and stored in a Tris-buffer (pH 8) including NaCN.
(§3) Thereafter, 140-200 mOD of the penicillin binding protein-gold conjugate and 5-20 mOD of the IgY-gold conjugate was solubilized in 100 μl buffer (80 mM Tris buffer comprising 0.01% w/v Triton-X-100, 0.4% w/v BSA, 5% v/v glycerin and 2% w/v saccharose (pH 8.5)) and 0.75 μl of the solution was dispensed per tube and dried for 12 hours at 40° C. The obtained tubes were sealed.
(§4) 150 μl of spiked milk was added per tube containing the dried conjugates. The concentration of penicillin G in the added milk varied from 0 to 4 ng/g (tube 1: 0 ng/g; […]; tube 2: 2 ng/g; tube 3: 3 ng/g; and tube 4: 4 ng/g). The obtained liquid composition was incubated for 2 minutes at 64° C. in an incubator. A test device was put into the tube and incubated for 3 minutes at 64° C. in the incubator. The result was read by eye.

[2] = tested on: Penicillin binding protein purified from Bacillus stearothermophilus; test: Detection of Penicillin G after storage of the test device at −20° C. or 30° C. (Example 26); parameters: key: 0: no intensity; 1: low intensity; 2: medium intensity; 3: high intensity
Method: as §1, §2, §3, §4
The test devices were produced as described above in Examples 1 and 2 and stored at different temperatures (−20° C. and 30° C.). At different time periods after production, the test device was used to detect penicillin G. The test was done essentially as described in Example 3.

[3] = tested on: Penicillin binding protein purified from Bacillus stearothermophilus; test: Detection of Penicillin G with milk having a different initial temperature (Example 30); parameters: key: 0: no intensity; 1: low intensity; 2: medium intensity; 3: high intensity
Method: as §1, §2, §3, §4
The test was done essentially as described in Example 3, with the proviso that the test was done with milk having an initial different temperature (0° C., 4° C., 20° C. or 45° C.). The milk was allowed to reach room temperature shortly before the test was done.

Intensity of the detection zone compared with the intensity of the control zone ([1]; Penicillin G 1 ng/g in milk): clearly higher
Intensity of the detection zone ([1]; Penicillin G 1 ng/g in spiked milk, read by eye): 3
Signal intensity of the detection zone compared with the signal intensity of the control zone ([1]; Penicillin G 2 ng/g in milk): similar
Intensity of the detection zone ([1]; Penicillin G 2 ng/g in spiked milk, read by eye): 2
Signal intensity of the detection zone compared with the signal intensity of the control zone ([1]; Penicillin G 3 ng/g in milk): similar
Intensity of the detection zone ([1]; Penicillin G 3 ng/g in spiked milk, read by eye): 2
Intensity of the detection zone compared with the intensity of the control zone ([1]; Penicillin G 4 ng/g in milk): significantly lower
Intensity of the detection zone ([1]; Penicillin G 4 ng/g in spiked milk, read by eye): 1
Concentration in the milk at which the signal of the detection zone clearly was less intense ([1]; spiked milk, read by eye): ≥ 2 ng/g
Intensity of detection zone ([2]; Pen G 3 ppb, test device stored 0 days at 30° C.): 2
Intensity of detection zone ([2]; Pen G 3 ppb, test device stored 0 days at −20° C.): 2
Intensity of detection zone ([2]; Pen G 3 ppb, test device stored 3 days at 30° C.): 2
Intensity of detection zone ([2]; Pen G 3 ppb, test device stored 3 days at −20° C.): 2
Intensity of detection zone ([2]; Pen G 3 ppb, test device stored 7 days at 30° C.): 2
Intensity of detection zone ([2]; Pen G 3 ppb, test device stored 7 days at −20° C.): 2
Intensity of detection zone ([2]; Pen G 3 ppb, test device stored 28 days at 30° C.): 1
Intensity of detection zone ([2]; Pen G 3 ppb, test device stored 28 days at −20° C.): 2
Intensity of detection zone ([2]; Pen G 4 ppb, test device stored 0 days at 30° C.): 1
Intensity of detection zone ([2]; Pen G 4 ppb, test device stored 0 days at −20° C.): 1
Intensity of detection zone ([2]; Pen G 4 ppb, test device stored 3 days at 30° C.): 1
Intensity of detection zone ([2]; Pen G 4 ppb, test device stored 3 days at −20° C.): 1
Intensity of detection zone ([2]; Pen G 4 ppb, test device stored 7 days at 30° C.): 1
Intensity of detection zone ([2]; Pen G 4 ppb, test device stored 7 days at −20° C.): 1
Intensity of detection zone ([2]; Pen G 4 ppb, test device stored 28 days at 30° C.): 0
Intensity of detection zone ([2]; Pen G 4 ppb, test device stored 28 days at −20° C.): 1
Intensity of detection zone ([3]; Pen G 3 ppb, initial milk temperature 0 ° C.): 2
Intensity of detection zone ([3]; Pen G 3 ppb, initial milk temperature 4 ° C.): 2
Intensity of detection zone ([3]; Pen G 3 ppb, initial milk temperature 20 ° C.): 2
Intensity of detection zone ([3]; Pen G 3 ppb, initial milk temperature 45 ° C.): 2
Intensity of detection zone ([3]; Pen G 4 ppb, initial milk temperature 0 ° C.): 1
Intensity of detection zone ([3]; Pen G 4 ppb, initial milk temperature 4 ° C.): 1
Intensity of detection zone ([3]; Pen G 4 ppb, initial milk temperature 20 ° C.): 1
Intensity of detection zone ([3]; Pen G 4 ppb, initial milk temperature 45 ° C.): 1
SMILES: CC1(C)S[C@@H]2[C@H](NC(=O)Cc3ccccc3)C(=O)N2[C@H]1C(=O)O [Penicillin G]
